Experimental data as given in patent US20210308101A1, “METHODS OF TREATING FIBROMYALGIA” (Aptinyx Inc., priority 2019, published 2021).

What was measured:
[1] = test system: subjects with fibromyalgia; assay: Quantitative Sensory Testing, all outcomes; assay type: in vivo, human
Excerpt: Other efficacy assessments, as used herein, include “Multi-Modal Automated Sensory Testing” (MAST) Pressure Pain Sensitivity, “Cuff Algometry,” and “Visual Stimulation Task.”
The multi-modal automated sensory testing (MAST) system was used to measure localized pressure sensitivity at an asymptomatic, neutral body site, the thumbnail. The MAST system is a nonsignificant-risk investigational device that applies a computer-controlled mechanical stimulation at precisely controlled intensity levels and durations. The validity in the measurement of centrally-mediated pain sensitivity has been discussed extensively. The MAST system delivered an ascending series of computer-controlled, 5-second pressures at 20-second intervals (with 20% jitter) to the subject's thumbnail bed, beginning at 0.25 to 0.5 kg/cm^2 and increasing in steps of 0.25 to 0.50 kg/cm^2. Pain intensity was rated after each pressure on a 0 to 100 NRS. Testing was terminated when the first of 3 possible stop conditions were met: 1) subject reached her personal pain tolerance and requested to stop the test, 2) subject reported a pain intensity rating of >80, or 3) the maximum pressure of 10 kg/cm^2 was delivered. A regression model was used fit the stimulus-response data obtained from this procedure and interpolate Pain50, defined as the pressure intensity that evokes a moderate level of suprathreshold pressure pain (i.e., 50/100). Additional derived variables included: 1) Pressure pain threshold, defined as the first pressure in a series of at least 2 consecutive pressures that elicited a NRS pain rating >0; 2) slope of the stimulus-response function as a measure of the rate of pain increase; and 3) pressure pain tolerance, defined as the last pressure recorded in the stimulus response profile. […]
Localized pressure pain sensitivity was also measured bilaterally at 3 additional body regions: trapezius, wrist, and patella. […] Sensitivity was measured using a digital algometer with a 1-cm^2 flat rubber probe. […]
Large volume, deep tissue pressure sensitivity was assessed by cuff algometry. […]

[2] = test system: subjects with fibromyalgia; assay: Patient Global Impression of Change (PGI-C); assay type: in vivo, human
Excerpt: As used herein, the “PGI-C” is Patient Global Impression of Change. The PGI-C is a 7-point Likert scale that allows subjects to rate the change in the disease state from study initiation to specific time points during the study or at the end of the study. It provides the subject's impression of overall change.
The PGI-C data were collected and analyzed at visits Week 2, Week 4, Week 6, and Follow-up (Week 7). […] The actual values and changes from treatment periods at Week 4 and Week 6 were summarized using descriptive statistics. A frequency distribution was created for each analysis visit based on the collected categorical values. The analysis categorical values stated above were summarized by frequency distributions and p-values using McNemar's test.

CC(C)C(=O)N1CCC[C@]12CN([C@H](C(N)=O)[C@@H](C)O)C2=O [NYX-2925, (2S, 3R)-3-hydroxy-2-((R)-5-isobutyryl-1-oxo-2,5-diazaspiro[3.4]octan-2-yl)butanamide]
effects on QST relative to placebo ([1]; NYX-2925 20 mg): no significant or marginal effects | differences on QST between doses ([1]; NYX-2925 20 mg versus NYX-2925 200 mg): no significant or marginal differences | effects on QST outcomes relative to placebo, other than right trapezius threshold ([1]; NYX-2925 200 mg): no additional significant or marginal effects | Patient Global Impression of Change ([2]; post hoc, improved including minimally improved, 20 mg and 200 mg versus placebo): a larger proportion of subjects had a reduction of severity | Patient Global Impression of Change ([2]; traditional definition of improved (very much improved, much improved)): little, if any, change in severity
